The values below come from patent US20020168417A1, “Agrochemical compositions and surfactant compounds” (priority 1999, published 2002).

Where two headings read alike, the source gives them in different places.

For series [1] the following is noted: in vivo.
Method: (§1) The irritancy of the products of some of the synthesis examples (if necessary after purification) was tested using standard testing protocols.
The conditions of series [2]: in vivo. The source holds these as a separate data set.
Method: as §1
The subject of series [3] is Daphnia magna. Put plainly: aquatic toxicity to Daphnia magna, standard bio-assay. Conditions: end of the 48 hour assay procedure. Type of series: in vivo. The source says: The results are given below:
In series [4] the test system is fungal leaf rust (Puccinia recondite). Put plainly: AE5 field trial, tebuconazole fungicide with adjuvant on winter wheat leaf rust. The class given is in vivo. Particulars: infected leaf area. The method, then:
Field trials were carried out to test the effectiveness of fungicide on winter wheat (variety Versailles) using the active Horizon EW (tebuconazole) (250 g.I^−1) in the control of fungal leaf rust (Puccinia recondite). The plots were sprayed at a spray volume 300 I.ha^−1, with the adjuvants added as tank mix additives at a concentration of 0.1% weightivolume on the spray. The normal application rate (NAR) for Horizon alone is 1 I.ha^−1 (250 g.ha^−1) and this was used as a control together with 0.75 I.ha^−1 (187.5 g.ha^−1; […]). An untreated control was also included. For these trials, adjuvant containing formulations were at ¾ NAR for the active and 0.1% weight/volume (300 g.ha^−1) adjuvant The effect of the spraying was assessed 3 weeks after treatment and is expressed as % infected leaf area (2 and 3 top leaves).

Series [5] can be described thus: irritancy, standard testing protocols: eye. Particulars: in vivo.
Method: as §1
A short description of series [6]: irritancy, standard testing protocols: skin. Particulars: in vivo.
Method: as §1
Setting [7] is: tebuconazole 187.5 g · ha^−1, adjuvant (where used) 300 g · ha^−1, 3 weeks after treatment.
The mark [8] stands for this setting: tebuconazole 250 g · ha^−1, adjuvant (where used) 300 g · ha^−1, 3 weeks after treatment.

As to “1-(N,N-bis(N-1-deoxyglucitylamino)amonium)-2-hydroxy-3-dodecyloxy Propane Sulphate [SE25]”, in series [1], the “Irritation assessment Skin” value is “slight”. In addition, the “Irritation assessment Eye” value in series [2] was “moderate”.

For the compound “1-(N-1-deoxyglucitylamino)2-hydroxyl-3-(branched octadecyloxy poly-10PO-10EO) propane [SE21]”, the “EC50 for immobilising the Daphnia” value in series [3] is 31.4 mg.I^−1. For the same compound, in series [1], the “Irritation assessment Skin” value is “slight/moderate”. The “Irritation assessment Eye” value in series [2] was “practically none/slight”.

On to `CC(C)(C)C(O)(CCc1ccc(Cl)cc1)Cn1cncn1` (racemic) [tebuconazole, (RS)1-p-chlorophenyl4,4-dimethyl-3-(1H-1,2,4triazole-1-ylmethyl)-pentan-3ol], for which the “% infected 2 leaf” value in series [4] (setting [7]) and in series [4] (setting [8]) was 2.5% in each case. Besides, the “% infected 3 leaf” value is 10% in series [4] (setting [7]) and 2.5% in series [4] (setting [8]).

For `CCCCCCCCCCOCC(O)CN(C)C[C@H](O)[C@@H](O)[C@H](O)[C@H](O)CO` (some centres unmarked) [SE10, 1-(N-methyl-N-1-deoxyglucitylamino)2-hydroxy-3-decyloxy propane], the “Irritation assessment Skin” value in series [1] is on record as “practically none”. Further, in series [2], the “Irritation assessment Eye” value was “moderate/severe”.

`CCCCCCCCCCCCCCOCC(O)CN(CC(O)C(O)C(O)C(O)CO)CC(O)C(O)C(O)C(O)CO` (centres unmarked) [SE20, 1-(N-bis-sorbitylamino)2-hydroxyl-3-tetradecyloxy propane]: the “EC50 for immobilising the Daphnia” value in series [3] is given as over 100 mg.I^−1.

For the compound “Betaine from 1-(N-1-deoxyglucitylamino)-2-hydroxy-3-dodecyloxy Propane [SE23]”, the “Irritation assessment Eye” value in series [5] was “moderate”. The “Irritation assessment Skin” value in series [6] was “slight”.
